Measured values: article PMC5918145, “Quantification of amino acids and peptides in an ionic liquid based aqueous two-phase system by LC–MS analysis” (AMB Express, 2018)
Entries after “also recorded” stand apart in the source; their conditions may differ. Like-named read-outs stand apart in the source and are kept apart here. Marks after values point to notes of the source that are not given here. One block for each compound: values may come before it. Where a SMILES comes first, the peptide text is derived from it.

Tests used:
[1] = Distribution ratio (logD) in ionic liquid-based aqueous two-phase system (Ammoeng 110/K2HPO4); conditions: Ammoeng 110 (0.60–0.65 g, filled to 4 g) / K2HPO4-KH2PO4 buffer, vortex 45 s, 5 min phase separation, LC–MS after EZ:faast SPE and derivatization (peptides after 6 M HCl hydrolysis, 20 h, 110 °C), duplicates, numbers only plotted (Fig. 2, Fig. 3)
[2] = design: method as in 2 sources, ref Hardy (1985) ||| ref Jakubke and Jeschkeit (1982); conditions: isoelectric point of free amino acid, cited from earlier work
[3] = design: method as in Kyte and Dolittle (1982); conditions: hydropathy scale; ref Kyte and Dolittle (1982); cited from earlier work

SMILES: C[C@H](N)C(=O)N[C@@H](C)C(=O)N[C@@H](CC(=O)O)C(=O)N[C@@H](C)C(=O)N[C@@H](C)C(=O)O [AADAA]
Distribution in IL-ATPS (logD, D = c upper phase / c lower phase), in words ([1]; pH 6.0): concentrated in the ionic liquid-containing upper phase
Distribution in IL-ATPS (logD, D = c upper phase / c lower phase), in words ([1]; pH 7.0): concentrated in the ionic liquid-containing upper phase

SMILES: C[C@H](N)C(=O)N[C@@H](C)C(=O)N[C@@H](Cc1ccccc1)C(=O)N[C@@H](C)C(=O)N[C@@H](C)C(=O)O [AAFAA] (H-AAFAA-OH)
Distribution in IL-ATPS (logD, D = c upper phase / c lower phase), in words ([1]; pH 6.0): concentrated in the ionic liquid-containing upper phase
Distribution in IL-ATPS (logD, D = c upper phase / c lower phase), in words ([1]; pH 7.0): concentrated in the ionic liquid-containing upper phase

SMILES: C[C@H](N)C(=O)N[C@@H](C)C(=O)NCC(=O)N[C@@H](C)C(=O)N[C@@H](C)C(=O)O [AAGAA] (H-AAGAA-OH)
Distribution in IL-ATPS (logD, D = c upper phase / c lower phase), in words ([1]; pH 6.0): almost equally distributed between the two phases
Distribution in IL-ATPS (logD, D = c upper phase / c lower phase), in words ([1]; pH 7.0): almost equally distributed between the two phases; also recorded: slightly more concentrated in the ionic liquid rich upper phase

Distribution in IL-ATPS (logD, D = c upper phase / c lower phase), in words ([1]; pH 6.0): enriched in the upper phase
SMILES: C[C@H](N)C(=O)N[C@@H](C)C(=O)N[C@@H](Cc1c[nH]cn1)C(=O)N[C@@H](C)C(=O)N[C@@H](C)C(=O)O [AAHAA]
Distribution in IL-ATPS (logD, D = c upper phase / c lower phase), in words ([1]; pH 7.0): accumulation of AAHAA in the upper phase was also detected, but not as strong as at pH 6.0

SMILES: CC(C)C[C@H](NC(=O)[C@H](C)NC(=O)[C@H](C)N)C(=O)N[C@@H](C)C(=O)N[C@@H](C)C(=O)O [AALAA] (H-AALAA-OH)
Distribution in IL-ATPS (logD, D = c upper phase / c lower phase), in words ([1]; pH 6.0): almost equally distributed between the two phases
Distribution in IL-ATPS (logD, D = c upper phase / c lower phase), in words ([1]; pH 7.0): almost equally distributed between the two phases; also recorded: slightly more concentrated in the ionic liquid rich upper phase

SMILES: C[C@H](N)C(=O)N[C@@H](C)C(=O)N[C@@H](CO)C(=O)N[C@@H](C)C(=O)N[C@@H](C)C(=O)O [AASAA] (H-AASAA-OH)
Distribution in IL-ATPS (logD, D = c upper phase / c lower phase), in words ([1]; pH 6.0): concentrated in the ionic liquid-containing upper phase
Distribution in IL-ATPS (logD, D = c upper phase / c lower phase), in words ([1]; pH 7.0): concentrated in the ionic liquid-containing upper phase

SMILES: N[C@@H](CCC(=O)O)C(=O)O [Glutamic acid]
pI ([2]; ref Hardy (1985)): 3.24^a
Distribution in IL-ATPS (logD, D = c upper phase / c lower phase), in words ([1]; pH 6.0): strongly enriched in the ionic liquids-containing upper phase
Distribution in IL-ATPS (logD, D = c upper phase / c lower phase), in words ([1]; pH 7.0): strongly enriched in the ionic liquids-containing upper phase

SMILES: NCC(=O)O [Glycine]
pI ([2]; ref Hardy (1985)): 5.97^a
Distribution in IL-ATPS (logD, D = c upper phase / c lower phase), in words ([1]; pH 6.0): distributed equally between the ionic liquid-rich upper and the phosphate-rich lower phase
Distribution in IL-ATPS (logD, D = c upper phase / c lower phase), in words ([1]; pH 7.0): distributed more into the ionic liquid-rich upper phase

SMILES: N[C@@H](Cc1c[nH]cn1)C(=O)O [Histidine]
pI ([2]; ref Hardy (1985)): 7.59^a
Distribution in IL-ATPS (logD, D = c upper phase / c lower phase), in words ([1]; pH 6.0): strongly enriched in the ionic liquids-containing upper phase
Distribution in IL-ATPS (logD, D = c upper phase / c lower phase), in words ([1]; pH 7.0): strongly enriched in the ionic liquids-containing upper phase

SMILES: CC(C)C[C@H](N)C(=O)O [Leucine]
Distribution in IL-ATPS (logD, D = c upper phase / c lower phase), in words ([1]; pH 6.0): distributed equally between the ionic liquid-rich upper and the phosphate-rich lower phase
Distribution in IL-ATPS (logD, D = c upper phase / c lower phase), in words ([1]; pH 7.0): marginally higher concentrated in the phosphate buffer-rich lower phase

SMILES: N[C@@H](Cc1ccccc1)C(=O)O [Phenylalanine]
pI ([2]; ref Jakubke and Jeschkeit (1982)): 5.48^b
Hydrophobicity of the side chain [3]: 2.8^c
Distribution in IL-ATPS (logD, D = c upper phase / c lower phase), in words ([1]; pH 6.0): strongly enriched in the ionic liquids-containing upper phase
Distribution in IL-ATPS (logD, D = c upper phase / c lower phase), in words ([1]; pH 7.0): strongly enriched in the ionic liquids-containing upper phase

SMILES: N[C@@H](CO)C(=O)O [Serine]
pI ([2]; ref Hardy (1985)): 5.68^a
Distribution in IL-ATPS (logD, D = c upper phase / c lower phase), in words ([1]; pH 6.0): distributed equally between the ionic liquid-rich upper and the phosphate-rich lower phase
Distribution in IL-ATPS (logD, D = c upper phase / c lower phase), in words ([1]; pH 7.0): distributed more into the ionic liquid-rich upper phase
